From patent US6362369B1, “Phthalic acid diamide derivatives fluorine-containing aniline compounds as starting material, agricultural and horticultural insecticides, and a method for application of the insecticides” (Nihon Nohyaku Co., Ltd., priority 1997, dated 2002)

Legend:
[1] = tested on: diamondback moth (Plutella xylostella); experiment: Insecticidal effect on diamondback moth (Test Example 1); type: in vivo; conditions: for Insecticidal effect, Test Example 1 / Insecticidal effect (Test Example 1), judged from mortality: diamondback moth; for Insecticidal effect (Test Example 1), judged from mortality: judged by the criterion of Test Example 1; for Insecticidal effect on diamondback moth (Test Example 1), judged grade: mortality judged according to the criterion shown in Test Example 1
In short: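 Read-out was mortality from hatched-insect counts taken 6 days after the egg-bearing cabbage seedling was immersed, graded by set criteria. Seedlings were air-dried and kept at 25° C after treatment. Groups of 10 insects, in triplicate.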

[2] = tested on: common cutworm (Spodoptera Litura); experiment: Insecticidal effect on common cutworm (Test Example 2); type: in vivo; conditions: 500 ppm, 25° C.; for Insecticidal effect, Test Example 2: cabbage leaf immersed; for Insecticidal effect, Test Example 2 / Insecticidal effect on common cutworm (Test Example 2), judged grade: eight days after inoculation; for Insecticidal effect (Test Example 2), judged from mortality / Insecticidal effect on common cutworm (Test Example 2), judged grade: cabbage leaf dip; for Insecticidal effect (Test Example 2), judged from mortality: 8 days after inoculation; for Insecticidal effect on common cutworm (Test Example 2), judged grade: second-instar larvae
Protocol: Insecticidal effect on common cutworm (Spodoptera Litura)
After air-drying, it was placed in a plastic Petri dish with a diameter of 9 cm and inoculated with second-instar larvae of common cutworm, after which the dish was closed and then allowed to stand in a room thermostated at 25° C. Eight days after the inoculation, the dead and alive were counted. The mortality was calculated according to the following equation and the insecticidal effect was judged according to the criterion shown in Test Example 1. The test was carried out with triplicate groups of 10 insects. [formula]

[3] = judged by the mortality criterion of Test Example 1
[4] = second-instar larvae of common cutworm
[5] = mortality judged by criterion of Test Example 1
[6] = common cutworm second-instar larvae

CC(C)NC(=O)c1ccccc1C(=O)Nc1ccc(F)c(F)c1 [compound 43]
Insecticidal effect, Test Example 1 [1, 3]: B (99-90) | Insecticidal effect, Test Example 2 [2, 4]: D (79-50)

Cc1cc(OC(F)F)c(Cl)cc1NC(=O)c1c(Cl)cccc1C(=O)NC(C)C [compound 245]
Insecticidal effect, Test Example 1 [1, 3]: A (100) | Insecticidal effect, Test Example 2 [2, 4]: D (79-50)

CC(C)(C)NC(=O)c1ccccc1C(=O)Nc1ccc(C(O)(C(F)(F)F)C(F)(F)F)cc1 [compound 1052]
Insecticidal effect, Test Example 1 [1, 5]: A (100) | Insecticidal effect, Test Example 2 [2, 6]: A (100)

Cc1cc(OC(F)F)ccc1NC(=O)c1cc(Cl)ccc1C(=O)NC(C)C [compound 193]
Insecticidal effect, Test Example 1 [1, 3]: A (100) | Insecticidal effect, Test Example 2 [2, 4]: D (79-50)

CC(C)NC(=O)c1c(I)cccc1C(=O)Nc1ccc(C(F)(C(F)(F)F)C(F)(F)F)c(Cl)c1 [compound 1697]
Insecticidal effect (Test Example 1), judged from mortality [1]: A (100) | Insecticidal effect (Test Example 2), judged from mortality [2, 4]: A (100)

Cc1cc(C(F)(C(F)(F)F)C(F)(F)F)c(F)cc1NC(=O)c1cccc(I)c1C(=O)NC(C)C [compound 1663]
Insecticidal effect (Test Example 1), judged from mortality [1]: A (100) | Insecticidal effect (Test Example 2), judged from mortality [2, 4]: A (100)

Cc1cc(Oc2ccc(C(F)(F)F)cn2)ccc1NC(=O)c1c(I)cccc1C(=O)NC(C)C [compound 460]
Insecticidal effect on diamondback moth (Test Example 1), judged grade [1]: A (100) | Insecticidal effect on common cutworm (Test Example 2), judged grade [2]: B (99-90)

CC(C)NC(=O)c1c(I)cccc1C(=O)Nc1ccc(C(F)(C(F)(F)F)C(F)(F)F)cc1F [compound 1669]
Insecticidal effect (Test Example 1), judged from mortality [1]: A (100) | Insecticidal effect (Test Example 2), judged from mortality [2, 4]: A (100)

Cc1cc(OC(F)F)ccc1NC(=O)c1cccc(Cl)c1C(=O)N[C@@H](C)c1ccccc1 [compound 1459]
Insecticidal effect (Test Example 1), judged from mortality [1]: A (100) | Insecticidal effect (Test Example 2), judged from mortality [2, 4]: A (100)

Cc1c(NC(=O)c2cccc(I)c2C(=O)NC(C)(C)C)ccc(C(F)(F)C(F)(F)F)c1C [compound 1613]
Insecticidal effect (Test Example 1), judged from mortality [1]: A (100) | Insecticidal effect (Test Example 2), judged from mortality [2, 4]: A (100)

Cc1cc2c(cc1NC(=O)c1cccc(I)c1C(=O)NC(C)C)OC(F)(F)C2(F)F [compound 1666]
Insecticidal effect (Test Example 1), judged from mortality [1]: A (100) | Insecticidal effect (Test Example 2), judged from mortality [2, 4]: A (100)

CC(C)NC(=O)c1ccccc1C(=O)Nc1ccc([N+](=O)[O-])cc1 [compound 22]
Insecticidal effect, Test Example 1 [1, 3]: A (100) | Insecticidal effect, Test Example 2 [2, 4]: D (79-50)

O=C(Nc1ccc(C(F)(F)C(F)(F)F)cc1Cl)c1cccc(Cl)c1C(=O)NCc1ccccc1 [compound 1487]
Insecticidal effect (Test Example 1), judged from mortality [1]: A (100) | Insecticidal effect (Test Example 2), judged from mortality [2, 4]: A (100)

Cc1cc(C(F)(F)C(F)(F)F)c(C)cc1NC(=O)c1cccc(I)c1C(=O)NC(C)C [compound 1610]
Insecticidal effect (Test Example 1), judged from mortality [1]: A (100) | Insecticidal effect (Test Example 2), judged from mortality [2, 4]: A (100)

Cc1cc(C(F)(C(F)(F)F)C(F)(F)F)ccc1NC(=O)c1cccc(OC(F)(F)F)c1C(=O)NC(C)C [compound 1236]
Insecticidal effect, Test Example 1 [1, 5]: A (100) | Insecticidal effect, Test Example 2 [2, 6]: A (100)

CC(C)(C)NC(=O)c1c(I)cccc1C(=O)Nc1ccc(C(F)(C(F)(F)F)C(F)(F)F)c(F)c1 [compound 1696]
Insecticidal effect (Test Example 1), judged from mortality [1]: A (100) | Insecticidal effect (Test Example 2), judged from mortality [2, 4]: A (100)

CC(C)(C)NC(=O)c1c(I)cccc1C(=O)Nc1cc2c(cc1F)OC(F)(F)O2 [compound 1596]
Insecticidal effect (Test Example 1), judged from mortality [1]: A (100) | Insecticidal effect (Test Example 2), judged from mortality [2, 4]: A (100)

CC(C)NC(=O)c1cccc(Cl)c1C(=O)Nc1ccc(OC(F)F)c(C(F)(F)F)c1 [compound 254]
Insecticidal effect, Test Example 1 [1, 3]: A (100) | Insecticidal effect, Test Example 2 [2, 4]: A (100)

CC(C)NC(=O)c1c(C(=O)Nc2ccc(Cl)c(Cl)c2Cl)cccc1[N+](=O)[O-] [compound 644]
Insecticidal effect on diamondback moth (Test Example 1), judged grade [1]: A (100) | Insecticidal effect on common cutworm (Test Example 2), judged grade [2]: A (100)

CC(C)NC(=O)c1c(Cl)cccc1C(=O)Nc1ccc(OC(F)F)c(C(F)(F)F)c1 [compound 164]
Insecticidal effect, Test Example 1 [1, 3]: A (100) | Insecticidal effect, Test Example 2 [2, 4]: A (100)

CC(C)NC(=O)c1c(Cl)cccc1C(=O)Nc1ccc(OC(F)(F)F)cc1F [compound 1187]
Insecticidal effect, Test Example 1 [1, 5]: A (100) | Insecticidal effect, Test Example 2 [2, 6]: A (100)

Cc1cc(C(F)(F)C(F)(F)F)ccc1NC(=O)c1cccc(I)c1C(=O)N[C@@H](C)CBr [compound 1606]
Insecticidal effect (Test Example 1), judged from mortality [1]: A (100) | Insecticidal effect (Test Example 2), judged from mortality [2, 4]: A (100)

Cc1cc(C(F)(C(F)(F)F)C(F)(F)F)ccc1NC(=O)c1cccc(I)c1C(=O)NC(C)(C)C [compound 1668]
Insecticidal effect (Test Example 1), judged from mortality [1]: A (100) | Insecticidal effect (Test Example 2), judged from mortality [2, 4]: A (100)

CC(C)NC(=O)c1cc(Cl)ccc1C(=O)Nc1ccc(F)cc1 [compound 169]
Insecticidal effect, Test Example 1 [1, 3]: A (100) | Insecticidal effect, Test Example 2 [2, 4]: D (79-50)

CNC(=O)c1ccccc1C(=O)Nc1ccc(C(F)(F)F)cc1 [compound 2]
Insecticidal effect, Test Example 1 [1, 3]: A (100) | Insecticidal effect, Test Example 2 [2, 4]: C (89-80)

CC(C)NC(=O)c1c(I)cccc1C(=O)Nc1cc2c(cc1I)OC(F)(F)O2 [compound 1660]
Insecticidal effect (Test Example 1), judged from mortality [1]: A (100) | Insecticidal effect (Test Example 2), judged from mortality [2, 4]: A (100)

Cc1cc(Oc2c(F)c(F)c(F)c(F)c2F)ccc1NC(=O)c1cccc([N+](=O)[O-])c1C(=O)NC(C)C [compound 725]
Insecticidal effect on diamondback moth (Test Example 1), judged grade [1]: A (100) | Insecticidal effect on common cutworm (Test Example 2), judged grade [2]: A (100)

Cc1cc(Oc2c(F)c(F)c(F)c(F)c2F)ccc1NC(=O)c1c(Cl)cccc1C(=O)NC(C)C [compound 248]
Insecticidal effect, Test Example 1 [1, 3]: A (100) | Insecticidal effect, Test Example 2 [2, 4]: C (89-80)

Cc1cc(C(F)(F)C(F)(F)F)ccc1NC(=O)c1cccc(C#N)c1C(=O)NC(C)C [compound 1245]
Insecticidal effect, Test Example 1 [1, 5]: A (100) | Insecticidal effect, Test Example 2 [2, 6]: A (100)

CCN(CC)C(=O)c1c(C(=O)Nc2ccc(C(F)(F)C(F)(F)F)cc2C)ccc(F)c1Cl [compound 1258]
Insecticidal effect, Test Example 1 [1, 5]: A (100) | Insecticidal effect, Test Example 2 [2, 6]: A (100)

O=C(Nc1ccc(C(F)(F)F)cc1)c1ccccc1C(=O)N1CCCC1 [compound 881]
Insecticidal effect on diamondback moth (Test Example 1), judged grade [1]: A (100) | Insecticidal effect on common cutworm (Test Example 2), judged grade [2]: D (79-50)

Cc1ccc(Cl)cc1NC(=O)c1c(Cl)cccc1C(=O)NC(C)C [compound 215]
Insecticidal effect, Test Example 1 [1, 3]: A (100) | Insecticidal effect, Test Example 2 [2, 4]: D (79-50)

CC(C)NC(=O)c1c(Cl)cccc1C(=O)Nc1cc2c(cc1F)OC(F)(F)O2 [compound 1594]
Insecticidal effect (Test Example 1), judged from mortality [1]: A (100) | Insecticidal effect (Test Example 2), judged from mortality [2, 4]: A (100)

CC(C)NC(=O)c1c(I)cccc1C(=O)Nc1cc2c(cc1Cl)OC(F)C(F)(F)O2 (racemic) [compound 1600]
Insecticidal effect (Test Example 1), judged from mortality [1]: A (100) | Insecticidal effect (Test Example 2), judged from mortality [2, 4]: A (100)

CC(C)NC(=O)c1c(C(=O)Nc2ccc(Br)cc2)cccc1[N+](=O)[O-] [compound 591]
Insecticidal effect on diamondback moth (Test Example 1), judged grade [1]: A (100) | Insecticidal effect on common cutworm (Test Example 2), judged grade [2]: D (79-50)

CC(C)NC(=O)c1c(I)cccc1C(=O)Nc1ccc(C(F)(C(F)(F)F)C(F)(F)F)cc1C(C)C [compound 1691]
Insecticidal effect (Test Example 1), judged from mortality [1]: A (100) | Insecticidal effect (Test Example 2), judged from mortality [2, 4]: A (100)

Cc1cc(OC(F)(F)F)ccc1NC(=O)c1cccc(OC(F)(F)F)c1C(=O)NC(C)C [compound 1233]
Insecticidal effect, Test Example 1 [1, 5]: A (100) | Insecticidal effect, Test Example 2 [2, 6]: A (100)

Cc1cc(OC(F)(F)C(F)OC(F)(F)F)ccc1NC(=O)c1c(Cl)cccc1C(=O)NC(C)C (centres unmarked) [compound 244]
Insecticidal effect, Test Example 1 [1, 3]: A (100) | Insecticidal effect, Test Example 2 [2, 4]: C (89-80)

Cc1cc(C(F)(C(F)(F)F)C(F)(F)F)c(F)cc1NC(=O)c1cccc(I)c1C(=O)NC(C)(C)C [compound 1664]
Insecticidal effect (Test Example 1), judged from mortality [1]: A (100) | Insecticidal effect (Test Example 2), judged from mortality [2, 4]: A (100)

CC(C)NC(=O)c1ccccc1C(=O)Nc1ccc(SC(F)(F)C(F)F)cc1 [compound 34]
Insecticidal effect, Test Example 1 [1, 3]: A (100) | Insecticidal effect, Test Example 2 [2, 4]: C (89-80)
